Measurements published in US20180264134A1, “A COMPOSITION OF GOLD NANOPARTICLES HAVING ANTIMICROBIAL PEPTIDES BOUND ON THEIR SURFACE FOR USE THE TREATMENT OF WOUND HEALING OR IN THE TREATMENT OF ISCHEMIC OR VASCULAR DISEASES OR IN THE TREATMENT OF SKIN DISORDERS” (priority 2015, published 2018).

Experiments:
[1] = system: clathrin-mediated endocytosis; assay: FITC-labelled transferrin uptake (validation of dynasore); type: cell-based, human; settings: 80 μM, 30 min pre-incubation, keratinocytes
Protocol: In an embodiment the HaCaT keratinocyte cells were cultured on 24 well plates (1×10^6 cells/well) and inhibited by one of the following chemicals during 30 min before adding a suspension of Rhodamine-labelled NPs (15 μg/mL): dynasor (100 μM), cytochalasin D (100 μM), nocodazole (25 uM), filipin III (1 μM) and polyinosinic acid (100 μg/mL), 5-(N-ethyl-N-isopropyl)amiloride (EIPA), dextran sulfate. The inhibitor concentrations were based in values reported in literature and further validated by us to have no cytotoxic effect over the period of the assay (6 h), as confirmed by viability assay. The incubation of the cells with NPs for different times was performed in the presence of the inhibitor. As controls, HaCaT keratinocyte cells without NPs and cells incubated with NPs without inhibitor were used. At the end of each time point, cells were centrifuged at 1300 rpm, 20° C. for 5 min, washed 3 times with cold PBS and then resuspended in PBS containing 2.5% FBS (500 μL) for FACS analysis. A total of 10,000 events were obtained per measurement. To validate the inhibitory activity of dynasor it were performed uptake studies of FITC-labeled transferrin, known to selectively enter cells via clathrin-mediated endocytosis. […] Cells were then evaluated as before.

platelets = assay: Platelet activation (CD62P expression) in whole peripheral blood; type: cell-based, human; settings: positive control
Protocol: In an embodiment, to evaluate the hemocompatibility of Au NPs and LL37-Au NPs, the induction of platelet activation was tested. Platelet activation was measured by the flow cytometric quantification of CD62P (P-selectin) expression. CD62P is a component of the α-granule membrane of resting platelets that is expressed on the platelet surface membrane only after α-granule secretion, which occurs during platelet activation. Platelets are very sensitive to in vitro activation and aggregation, therefore, the less they are manipulated the better, for this reason the whole peripherical blood (diluted in tyrode buffer) were incubated with the NPs instead of isolating platelet rich plasma. […] As positive control it was used ADP, a platelet activator, which induced the activation of 40% of the platelets (FIG. 13). […] In contrast, HUVECs were more sensitive to soluble LL37 than HaCaT showing cytotoxic effect at a concentration of 10 μg/mL and 30 μg/mL, respectively. Furthermore, LL37-Au NPs have lower cytotoxic and impact on membrane potential than soluble peptide that for the same concentration of LL37 (up to 100 μg/mL). Differences in the cell membrane composition between HUVECs and HaCaT might account for the differences between endothelial and epithelial cells response on LL37 cytotoxicity as supported by the result of membrane potential analysis (FIG. 13d).

## O=C(N/N=C/c1ccc(O)c(O)c1)c1cc2ccccc2cc1O [Dynasore, dynasore]
[1]
  internalisation of FITC-labelled transferrin: inhibits the internalisation of transferrin

## Nc1ncnc2c1ncn2[C@@H]1O[C@H](COP(=O)(O)OP(=O)(O)O)[C@@H](O)[C@H]1O [ADP]
platelets
  activated platelets: 40%
